Experimental data reported in patent publication US11878053B2, “Vaccine compositions comprising tryptophan 2,3-dioxygenase or fragments thereof” (IO Biotech ApS, priority 2014, dated 2024).

What was measured:
[1] = test system: peripheral blood mononuclear cells (PBMC); assay: IFNγ ELISPOT assay with HLA-A2 restricted TDO peptides; type: cell-based, human; conditions: for TDO responses shown by ELISPOT vs control peptide, DFR method: 3*10^5 cells/well, control peptide HIVpol463-476, examples; for IFNγ producing T-cell in response to the peptide: PBMC from six cancer patients, after one round of in vitro stimulation; for ex vivo IFNγ ELISPOT response: directly ex vivo, PBMC from different cancer patients, 9*10^5 cells/well
HLA-A2 = molecular target: T1, HLA-A2 (Homo sapiens, UniProt P04439, D140Y/D185E/D98H/E176V/E277Q/G131W/G231S/I119V/I121R/I166T/I218V/N151K/N90K/P208A/P217A/Q86G/Q94H/R138H/R169H); conditions: positive control peptides, well described; cited from earlier work
T1 construct: made in house; host or cells: E. coli

[2] = test system: TDO-specific CD8+ T cells; assay: Tetramer staining (flow cytometry) of TDO-specific CD8+ T cells; type: cell-based, human; conditions: PBMC from a cancer patient repeatedly stimulated with autologous DC loaded with the peptide (5- or 4-times)
Protocol: DC were generated by adherence of PBMCs to the plastic surface of a well for one hour in RPMI 1640 (Gibco) before removal of non-adherent cells. The adherent cells were treated with 1000 U/ml GM-CSF (PeproTech, London, UK) and 250 U/ml IL-4 (Peprotech) in X-vivo (Lonza, Copenhagen, Denmark) supplied with 5% human AB serum (Sigma-Aldrich) and placed in a 37° C., 5% CO2 and humidified environment. On day six, maturation cocktail consisting of 1000 U/ml of each TNFα, IL-1P and IL-6 and 1 μg/ml PGE2 (Peprotech) was added to the cells. On day eight, mature DCs were harvested, loaded with 100 μM TDO peptide in X-vivo 15 (Lonza) for four hours in the incubator. After washing, peptide-loaded DCs were mixed with autologous PBLs in X-vivo 15 (Lonza) supplied with 5% human AB serum (Sigma-Aldrich). […] Cultures were stimulated this way twice seven days apart. Further stimulations were performed using autologous, irradiated (25Gy) PBLs loaded with 100 μM TDO peptide. The day after stimulation with PBLs the cultures were supplied with IL-2 (Proleukin; Novartis, Copenhagen, Denmark) to a final concentration of 40 U/ml. Peptide loaded MHC tetramers were […] with 2.5 μl of each phycoerytrhin (PE). […] The stainings were performed in 50 μl PBS (Lonza) supplied with 2% FCS (Gibco) for 15 minutes in the incubator. […]

T2 cells = assay: 51Cr-release cytotoxicity assay, peptide-pulsed T2 cells; type: cell-based; conditions: short peptides added immediately before the assay, long peptides loaded overnight
Protocol: Assessment of the cytotoxic capability of the generated T-cell lines was evaluated using a conventional chromium release assay as described. Briefly, target tumor cell lines were labeled with 100 μCi ^51Cr (Perkin Elmer, Skovlunde, Denmark) in 100 μl RPMI 1640 (Gibco) supplied with 10% FCS (Gibco) for one hour at 37° C. After washing of target cells, they were incubated with effector cells at different effector:target (E:T) ratios for four hours in the incubator. Subsequently, the amount of radioactivity in the supernatant was measured using a gamma cell counter (Perkin Elmer Wallac Wizard 1470 Automatic gamma counter).

CD4+ T cells in PBMC = assay: Cytokine ELISPOT (IFNγ, TNFα, IL-10, IL-17A) with long TDO peptides; type: cell-based, human; conditions: for Peptide-specific CD4 T-cell responses: ELISPOT, cancer patients and healthy donors; for IFNγ producing CD4+ T cells, cancer patients vs healthy donors: IFNγ ELISPOT; for IL-10 production in response to peptide stimulation: IL-10 ELISPOT; for IL-17 production in response to peptide stimulation: IL-17 ELISPOT; for cells producing TNFα in response to peptide, cancer patients vs healthy donors: TNFα ELISPOT

Row | Sequence | TDO responses shown by ELISPOT vs control peptide, DFR method [1] | IFNγ producing T-cell in response to the peptide [1] | affinity towards HLA-A2 (HLA-A2) | ex vivo IFNγ ELISPOT response [1] | frequency of TDO-specific CD8+ T cells by two color tetramer staining [2] | lysis of T2 cells pulsed with the peptide by TDO123-132 specific cells (T2 cells) | Peptide-specific CD4 T-cell responses (CD4+ T cells in PBMC) | IFNγ producing CD4+ T cells, cancer patients vs healthy donors (CD4+ T cells in PBMC) | IL-10 production in response to peptide stimulation (CD4+ T cells in PBMC) | IL-17 production in response to peptide stimulation (CD4+ T cells in PBMC) | cells producing TNFα in response to peptide, cancer patients vs healthy donors (CD4+ T cells in PBMC)
1 | DLFNLSTYL (Peptide fragment of human TDO) [TDO364-372, Polypeptide fragment of human TDO] | statistically significant | presence of IFNγ producing T-cell |  |  |  |  |  |  |  |  | 
2 | ILKEPVHGV [HIVpol468-476] |  |  | high affinity |  |  |  |  |  |  |  | 
3 | KLLVQQFSIL (Peptide fragment of human TDO) [TDO123-132, Polypeptide fragment of human TDO] | statistically significant | presence of IFNγ producing T-cell |  | detectable directly ex vivo | dramatically increased | lysed |  |  |  |  | 
4 | QLLTSLMDI (Peptide fragment of human TDO) [TDO309-317, Polypeptide fragment of human TDO] | statistically significant | presence of IFNγ producing T-cell |  | detectable directly ex vivo | dramatically increased | not |  |  |  |  | 
5 | RFQVPFQLLTSLMDIDSLMT (Peptide fragment of human TDO) [TDO303-322, long (20 amino acids) peptide comprising TDO309-317] |  |  |  |  |  | not | present in both cancer patients and healthy donors | no difference | restricted to cancer patients | restricted to cancer patients | more frequent in healthy donors
6 | TLLELVEAWL (Peptide fragment of human TDO) [TDO200-208, Polypeptide fragment of human TDO] | statistically significant | presence of IFNγ producing T-cell |  | detectable directly ex vivo |  |  |  |  |  |  | 
7 | VSVILKLLVQQFSILETMTA (Peptide fragment of human TDO) [TDO118-137, long (20 amino acids) peptide comprising TDO123-132] |  |  |  |  |  | lysed | present in both cancer patients and healthy donors | no difference | restricted to cancer patients | restricted to cancer patients | more frequent in healthy donors
